According to patent US11976074B1, “Crystalline salts of Linsitinib” (Sling Therapeutics, Inc., priority 2023, dated 2024):
Entries after “also recorded” stand apart in the source; their conditions may differ.

Tests used:
Format in all cases: physicochemical
[1] = Physical stability testing of Esylate 4 (elevated temperature vacuum drying); conditions: vacuum oven, 60° C., 18 hours
Text: Esylate 4 was obtained from salt formation experiments using 1 Eq ESA at RT and ST in IPA and was further characterized using multiple techniques (Table 16).
Esylate 5 was initially only obtained in-tandem with Esylate 4 from slurries in several different solvent systems (FIG. 4). […] Due to the fact that the sample had been generated via drying at elevated temperature, the weight loss observed upon heating is likely due to surface or channel water absorbed during exposure to ambient conditions. […] Esylate 5 was not obtained from any of the interconversion slurries, indicating it is metastable under the conditions investigated (Table 18).

[2] = Interconversion slurries of esylate forms; conditions: 4° C., RT, 60° C.; MEK and 2:1 EtOH:HEP
Procedure: To find the thermodynamically stable form of the mono-salt, interconversion slurries were set-up at three different temperatures in two different solvent systems between Esylates 1, 2, 3 and Esylate 4+Esylate 5 (Table 11). A sample of Esylate 4+Esylate 5 was included as part of the interconversion slurry in-spite of Esylate 4 being a solvate as Esylate 5 could not be isolated as a separate pure phase until the drying experiment was carried out on Esylate 4 towards the end of the study. Slurries were set-up at 4° C., RT and at 60° C. in MEK and 2:1 EtOH:HEP, resulting in a total of six experiments which were run for a total of 7 days.

[3] = 75% relative humidity stress test; conditions: 24 days, RT
Procedure: (§1) A scale-up attempt for Esylate 2 was carried out towards the relative humidity stress test and the mechanical stress test.

[4] = Equilibrium solubility in bio-relevant media (FaSSGF pH 1.6, FaSSIF pH 6.5)
Text: In addition to the pH-solubility data, a comparison of the equilibrium solubility of linsitinib free base and salts in two bio-relevant media (Table 28), fasted state simulated gastric fluid (FaSSGF pH 1.6) and intestinal fluid (FaSSIF pH 6.5) was completed. […] A saturated solution of Esylate 1 was not achieved during this study and therefore the equilibrium solubility could be higher than determined. It should be noted that variability of almost a full pH unit was noted among the samples making a direct comparison more challenging.

[5] = Mechanical stress test (neat grinding/milling); conditions: milled neat at max power for 30 minutes
Procedure: as §1

[6] = DVS analysis (hygroscopicity) of Esylate 2
Text: Esylate 2 appears to be a stable polymorph of the esylate salt of linsitinib. Esylate 2 was isolated from a wide range of techniques, solvents and temperatures, and a few samples were characterized further (Table 13). NMR analysis confirmed it to be a 1:1 linsitinib esylate salt. […] This was further supported by successful indexing of its PXRD pattern, whose calculated unit cell volume pointed to a 1:1 salt (Section 0).

[7] = Water activity slurries of Esylate 2 seeded with Esylate 1; conditions: for PXRD result of water activity slurry: seeded with Esylate 1
Text: Water activity slurries were set-up with Esylate 2 and seeds of Esylate 1 to explore the presence of a potential hydrate and any associated critical water activity (Table 12). Four slurries were set-up in varying ratios of THF and H2O corresponding to 0.45, 0.63, 0.78 and 0.91 aw respectively.

[8] = pH-solubility of linsitinib free base and selected salts (pH 1.5 to 6.5, overnight equilibration, HPLC); conditions: for solubility: overnight equilibration; for Final pH: after overnight equilibration
Procedure: The pH-solubility of selected salts (Phosphate 1, L-Malate 1, Esylate 1, and Esylate 2) was evaluated and compared with linsitinib free base. The solubility analysis was conducted in a manner consistent with a previous study that was performed with linsitinib free base. Aqueous solutions were prepared between pH 1.5 and pH 6.5 in 0.5 pH unit increments via titration of the solution using NaOH and HCl. For each salt or the free base, an attempt was made to reach saturation in each of the solutions by adding sufficient material to the solution such that excess solids remained. If saturation was achieved, the pH of the solution was measured and adjusted to the target pH and additional material was added if needed. The samples were then equilibrated overnight. The final pH of the solution was measured, the solids were filtered and selected samples were analyzed by PXRD. The concentration of linsitinib in the filtrate was quantitated by HPLC (diluted as needed). In some cases, significant drift (+1 pH unit or more) of the final pH from the target pH was observed after the overnight equilibration.
The pH-solubility data is shown graphically in FIG. 89. […] Indeed, it should be noted that in the majority of the low pH systems, higher initial dissolution/solubility was observed followed by precipitation of the material from solution upon longer equilibration.

[9] = Differential scanning calorimetry (DSC); conditions: endotherms
Procedure: DSC analysis was carried out using a TA Instruments […] Discovery Series instrument. The instrument temperature calibrations were performed using indium. The DSC cell was kept under a nitrogen purge of 50 mL per minute during the analysis. The sample was placed in a standard, crimped aluminum pan and heated from approximately 25° C. to 300° C. at a rate of 10° C. per minute

[10] = Thermogravimetric analysis (TGA); conditions: start to 83° C.
Procedure: The TG analysis was carried out using a TA Instruments […] Discovery Series instrument. The instrument balance was calibrated using class M weights and the temperature calibration was performed using alumel. The nitrogen purge was 10 mL per minute at the balance and 25 mL per minute at the furnace. The sample was placed into a pre-tared platinum pan and heated from approximately 25° C. to 300° C. at a rate of 10° C. per minute.

[11] = Heating experiments with selected malate samples
Procedure: Based on the thermal data, Malate 4 and Malate 5 were heated at […] for 15 minutes. The solids were re-analyzed by PXRD after heating to investigate any form change upon dehydration. […] While there was an insufficient amount of sample to further characterize Malate 7, based on the conditions upon which it was generated, it could be a lower hydrate or an anhydrous form.

With `CCS(=O)(=O)O.C[C@]1(O)C[C@@H](c2nc(-c3ccc4ccc(-c5ccccc5)nc4c3)c3c(N)nccn32)C1` [Esylate 4] the “PXRD result after vacuum drying” value [1] was “form change into Esylate 5” and the “Relative stability of the form in interconversion slurries” value [2] was “metastable”.
In the case of `CCS(=O)(=O)O.C[C@]1(O)C[C@@H](c2nc(-c3ccc4ccc(-c5ccccc5)nc4c3)c3c(N)nccn32)C1` [Esylate 2], the “PXRD result after 75% RH stress” value [3] was “no form change; also recorded: Esylate 2”, the “Weight gain by TGA after 75% RH stress” value [3] was “no weight gain” and the “Final pH” value ([4]; FaSSGF (pH 1.6)) was 3.25. For the same molecule, the solubility ([4]; FaSSGF (pH 1.6)) was 103.10 mg/mL, the “Solubility compared with the free base” value ([4]; FaSSGF (pH 1.6), in words) was “highest solubility by a significant margin” and the “Final pH” value ([4]; FaSSIF (pH 6.5)) was 3.72. The solubility ([4]; FaSSIF (pH 6.5)) was 1.62 mg/mL, the “PXRD result after grinding” value [5] was “poorly crystalline Esylate 2 along with amorphous residue” and the “Hygroscopicity by DVS” value [6] was “slightly hygroscopic”. The “Net weight change after DVS analysis” value [6] was “no net weight change”, the “Weight gain and loss during the sorption and desorption cycles” value [6] was 1% and the “DVS sorption total weight gain” value ([6]; 5-95% RH) was 5-95% RH: Total 33.1% weight gain. For the same molecule, the “DVS sorption weight gain” value ([6]; 35-75% RH) was 35-75% RH: 12.0% weight gain, the “DVS desorption weight loss” value ([6]; 75-35% RH) was 75-35% RH: 12.3% weight loss and the “DVS sorption weight gain” value ([6]; 75-95% RH) was 75-95% RH: 16.9% weight gain. The “DVS desorption total weight loss” value ([6]; 95-5% RH) was 95-5% RH: Total 33.1% weight loss, the “DVS desorption weight loss” value ([6]; 95-75% RH) was 95-75% RH: 14.2% weight loss and the “Water up-take above 85% RH” value ([6]; above 85% RH) was roughly 0.8%. For the same molecule, the “DVS net weight change” value ([6]; after sorption and desorption) was −0.04% weight loss, the “PXRD result of water activity slurry” value ([7]; 93.1% THF in H2O, aw = 0.91, RT) was “Esylate 2” and the “PXRD result of water activity slurry” value ([7]; 94.7% THF in H2O, aw = 0.78, RT) was “Esylate 2”. For the same molecule, the “PXRD result of water activity slurry” value ([7]; 96.2% THF in H2O, aw = 0.63, RT) was “Esylate 2”, the “PXRD result of water activity slurry” value ([7]; 97.6% THF in H2O, aw = 0.45, RT) was “Esylate 2” and the “Critical water activity, if present” value ([7]; THF/H2O slurries at RT) was greater than 0.91 aw. The “Relative stability of the form in interconversion slurries” value [2] was “most stable form”, the solubility ([8]; aqueous solution, pH 6, aqueous buffer, thermodynamic from solid, target pH 6.0, read-out: Solubility) was 0.7 mg/mL and the “Solubility compared to the free base and other salts” value ([8]; between pH 3 and pH 4) was “highest solubility”. For the same molecule, the “Solubility compared with the free base or Phosphate 1” value ([8]; lower pH (<3)) was “significantly higher solubility”, the “Final pH” value ([8]; target pH 1.5) was 1.45 and the solubility ([8]; target pH 1.5, * = clear solution, not equilibrium value) was 106.19 mg/mL. For the same molecule, the “Final pH” value ([8]; target pH 2.0) was 2.06, the solubility ([8]; target pH 2.0, * = clear solution, not equilibrium value) was 97.33 mg/mL and the “Final pH” value ([8]; target pH 2.5) was 2.54. For the same molecule, the solubility ([8]; target pH 2.5, * = clear solution, not equilibrium value) was 71.00 mg/mL, the “Final pH” value ([8]; target pH 3.0) was 3.04 and the solubility ([8]; target pH 3.0, * = clear solution, not equilibrium value) was 73.90 mg/mL. The “Final pH” value ([8]; target pH 3.5) was 3.53, the solubility ([8]; target pH 3.5, * = clear solution, not equilibrium value) was 38.04 mg/mL and the “Final pH” value ([8]; target pH 4.0) was 3.99. For the same molecule, the solubility ([8]; target pH 4.0, * = clear solution, not equilibrium value) was 39.56 mg/mL, the “Final pH” value ([8]; target pH 4.5) was 4.54 and the solubility ([8]; target pH 4.5, * = clear solution, not equilibrium value) was 18.90 mg/mL. The “Final pH” value ([8]; target pH 5.0) was 4.96, the solubility ([8]; target pH 5.0) was 20.46 mg/mL and the “Final pH” value ([8]; target pH 5.5) was 5.48. The “Final pH” value ([8]; target pH 6.0) was 4.18, the “Final pH” value ([8]; target pH 6.5) was 4.34 and the solubility ([8]; target pH 6.5) was 0.002 mg/mL.
In the case of `C[C@]1(O)C[C@@H](c2nc(-c3ccc4ccc(-c5ccccc5)nc4c3)c3c(N)nccn32)C1.O=C(O)C[C@H](O)C(=O)O` [Malate 5], the “DSC Results, Endo” value [9] was “Endo: 109 °C”, the “TGA Results (weight loss)” value [10] was 7.4%, start to 83 °C and the “XRPD result after heating” value ([11]; 92° C., 15 min) was “Malate 7 + pk”. For the same molecule, the “Form change upon heating (PXRD)” value ([11]; heated for 15 minutes) was “dehydrate to a new form, designated as Malate 7”.
